Reference: paper PMC5333395, “Assessing histone demethylase inhibitors in cells: lessons learned” (Epigenetics & Chromatin, 2017)

Tests used:
[1] = system: HeLa cells; assay: Cell number in the high-content screen (DAPI staining) as measure of toxicity; conditions: concentrations used in the IF assays
Excerpt: Immunofluorescence images of 20 fields (if not indicated otherwise) were captured through a 20× objective on a PerkinElmer Operetta or the GE IN Cell 6000 using the appropriate filters and light sources for exciting DAPI, Alexafluor 488, and Alexafluor 568 or Alexafluor 647. […] From the DAPI channel, a binary mask was created to exclude individual nuclei smaller than 100 µm^2 and those overlapping the edge of the field.

[2] = target: KDM5B (Homo sapiens, UniProt Q9UGL1); assay: High-content immunofluorescence (IF) assay, overexpressed full-length FLAG-tagged KDM in HeLa cells; format: cell-based; parameters: transiently transfecting the full-length FLAG-tagged demethylase (WT) into cells; expressed in transfected cells; host or cells: HeLa; conditions: for EC50: HeLa cells overexpressing WT KDM5B, H3K4me3 mark, 24 h, read-out: KDM5B, in cells, EC50 by IF assay (head: IC50); for Effect on H3K4me3 mark in KDM5B IF assay, in words: HeLa cells transfected with KDM5B
Procedure: HeLa cells (ATCC) were cultured at 37 °C and 5% CO2 in Minimal Essential Media—Eagle (Sigma-Aldrich, UK) supplemented with 10% heat-inactivated foetal calf serum (FCS) (Gibco, UK), and 1% L-glutaMAX (Gibco, UK) in T75 flasks (Sarstedt, UK) and passaged regularly with TrypLE (Life Technologies, UK) before cells reached confluence. On day 0, 7000 cells per well were plated on a 96-well clear bottom CellCarrier plate (PerkinElmer, UK). The next day the cells were transfected with Lipofectamine 3000 (ThermoFisher Scientific, UK) following the manufacturer’s instructions. Briefly, 0.1 µg of plasmid DNA (encoding for the respective demethylase) and 0.15 µL of Lipofectamine 3000 were diluted in separate tubes containing 5 µL OptiMEM. 0.15 µL of P3000 was added to the tube with the DNA. The two solutions were then mixed gently and allowed to incubate for 5 min at room temperature. Next, the DNA-lipid complex was added to the cells for 4 h at 37 °C and 5% CO2.
Compound dilutions were made in a 96-well PCR plate (Starlab, UK). The culture medium was supplemented with 0.4% DMSO so that the solvent concentration was maintained throughout. Compounds were serially diluted at a 1:2 or 1:3 dilution ratio. Next, the cell culture plate was removed from the incubator and the medium was gently aspirated and replaced with the fresh medium containing diluted compounds.
Then cells were rinsed once with PBS and blocked for 30 min at room temperature using 3% v/v foetal calf serum diluted in PBS.

[3] = target: T1, KDM2A (Homo sapiens, UniProt Q9Y2K7); assay: AlphaScreen in vitro demethylase assay; format: biochemical; conditions: IC50 ± SD (number of replicates)
T1 sequence (Q9Y2K7 1-1162): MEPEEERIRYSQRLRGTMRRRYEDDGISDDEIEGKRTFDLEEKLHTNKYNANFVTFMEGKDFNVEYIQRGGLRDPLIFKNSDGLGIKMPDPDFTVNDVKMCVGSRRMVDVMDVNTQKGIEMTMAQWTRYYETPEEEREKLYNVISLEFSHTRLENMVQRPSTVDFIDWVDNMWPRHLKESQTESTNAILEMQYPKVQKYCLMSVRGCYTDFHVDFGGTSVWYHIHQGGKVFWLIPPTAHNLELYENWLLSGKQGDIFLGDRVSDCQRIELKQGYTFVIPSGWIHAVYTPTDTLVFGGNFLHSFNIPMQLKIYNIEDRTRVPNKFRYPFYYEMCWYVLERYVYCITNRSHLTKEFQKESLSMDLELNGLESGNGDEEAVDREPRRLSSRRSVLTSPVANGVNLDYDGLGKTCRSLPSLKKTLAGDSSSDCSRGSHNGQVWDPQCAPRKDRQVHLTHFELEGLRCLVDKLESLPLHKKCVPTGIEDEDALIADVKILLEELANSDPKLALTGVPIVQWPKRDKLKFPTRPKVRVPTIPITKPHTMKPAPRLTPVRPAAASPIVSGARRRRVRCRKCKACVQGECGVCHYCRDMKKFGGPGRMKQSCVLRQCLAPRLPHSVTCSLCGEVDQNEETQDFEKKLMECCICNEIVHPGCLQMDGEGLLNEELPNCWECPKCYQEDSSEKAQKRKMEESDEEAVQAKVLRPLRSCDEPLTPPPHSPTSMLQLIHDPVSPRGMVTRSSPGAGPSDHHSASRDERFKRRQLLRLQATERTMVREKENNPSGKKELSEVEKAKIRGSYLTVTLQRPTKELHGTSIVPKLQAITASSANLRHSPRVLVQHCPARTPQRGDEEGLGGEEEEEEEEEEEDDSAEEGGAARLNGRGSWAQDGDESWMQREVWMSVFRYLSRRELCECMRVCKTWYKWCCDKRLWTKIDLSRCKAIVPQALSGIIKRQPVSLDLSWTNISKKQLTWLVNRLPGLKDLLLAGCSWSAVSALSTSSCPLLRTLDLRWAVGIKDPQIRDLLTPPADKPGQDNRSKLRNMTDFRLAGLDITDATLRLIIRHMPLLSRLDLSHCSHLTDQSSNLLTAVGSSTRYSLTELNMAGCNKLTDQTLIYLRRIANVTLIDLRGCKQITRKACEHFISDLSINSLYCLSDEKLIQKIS
Procedure: IC50 values were determined as previously described. The following amendments were made to the protocol for carrying out 2-OG competition assays.

Sequence of KDM5B (Q9UGL1 whole entry): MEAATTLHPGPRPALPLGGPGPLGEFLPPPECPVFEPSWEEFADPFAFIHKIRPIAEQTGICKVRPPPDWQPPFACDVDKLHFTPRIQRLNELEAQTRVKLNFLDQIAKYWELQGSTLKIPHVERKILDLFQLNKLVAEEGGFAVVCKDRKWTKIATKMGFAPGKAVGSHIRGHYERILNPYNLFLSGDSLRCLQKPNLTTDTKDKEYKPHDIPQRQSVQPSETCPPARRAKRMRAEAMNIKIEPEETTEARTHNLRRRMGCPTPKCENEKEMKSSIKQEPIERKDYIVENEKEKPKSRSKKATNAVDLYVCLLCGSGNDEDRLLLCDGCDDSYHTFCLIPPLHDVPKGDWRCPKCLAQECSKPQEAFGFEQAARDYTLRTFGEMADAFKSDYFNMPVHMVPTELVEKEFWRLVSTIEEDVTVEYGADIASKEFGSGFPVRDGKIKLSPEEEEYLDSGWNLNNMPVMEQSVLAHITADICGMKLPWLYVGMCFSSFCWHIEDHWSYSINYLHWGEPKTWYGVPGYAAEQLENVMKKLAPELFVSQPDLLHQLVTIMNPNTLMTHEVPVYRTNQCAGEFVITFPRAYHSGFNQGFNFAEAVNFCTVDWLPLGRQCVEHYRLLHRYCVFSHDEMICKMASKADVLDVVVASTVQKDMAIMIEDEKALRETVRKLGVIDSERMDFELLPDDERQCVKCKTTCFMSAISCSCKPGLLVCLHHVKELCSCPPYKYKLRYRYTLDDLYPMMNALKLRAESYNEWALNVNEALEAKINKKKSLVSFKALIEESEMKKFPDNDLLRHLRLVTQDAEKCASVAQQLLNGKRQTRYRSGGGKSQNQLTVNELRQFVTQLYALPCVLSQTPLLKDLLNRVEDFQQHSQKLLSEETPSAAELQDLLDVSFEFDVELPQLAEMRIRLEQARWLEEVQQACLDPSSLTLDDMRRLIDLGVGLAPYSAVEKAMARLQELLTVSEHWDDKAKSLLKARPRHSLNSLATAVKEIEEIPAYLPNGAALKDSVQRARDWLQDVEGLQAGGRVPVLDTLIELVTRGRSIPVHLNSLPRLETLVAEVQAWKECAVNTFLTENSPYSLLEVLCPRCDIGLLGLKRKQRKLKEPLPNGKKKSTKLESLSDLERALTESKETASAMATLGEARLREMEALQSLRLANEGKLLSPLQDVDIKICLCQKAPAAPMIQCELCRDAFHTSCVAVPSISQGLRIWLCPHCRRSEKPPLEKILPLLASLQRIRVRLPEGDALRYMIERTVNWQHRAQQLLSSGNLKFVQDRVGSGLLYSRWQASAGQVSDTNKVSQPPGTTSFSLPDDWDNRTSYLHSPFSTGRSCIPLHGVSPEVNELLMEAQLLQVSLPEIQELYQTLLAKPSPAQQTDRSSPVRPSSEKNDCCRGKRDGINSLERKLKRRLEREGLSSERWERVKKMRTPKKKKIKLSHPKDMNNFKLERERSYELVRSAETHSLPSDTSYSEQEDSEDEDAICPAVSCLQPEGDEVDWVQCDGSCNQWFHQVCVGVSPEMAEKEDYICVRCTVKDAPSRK

Compound | Toxicity as measured by cell count (number of cells, DAPI staining) [1] | EC50 [2] | Effect on H3K4me3 mark in KDM5B IF assay, in words [2] | IC50 [3]
O=c1[nH]cnc2c(-n3cc(CCN4CCC(c5cccc(Cl)c5)CC4)cn3)cccc12 [CCT366293, 8-(4-(2-(4-(3-Chlorophenyl)piperidin-1-yl)ethyl)-1H-pyrazol-1-yl)quinazolin-4(3H)-one] | No cytotoxicity was observed | > 100 µM | no effect | 
CCN(CCN(C)C)C(=O)CNCc1cc(C(=O)O)ccn1 [KDOAM-20] | no toxicity | 20 µM |  | 2.2 ± 0.37 µM
CCOC(=O)c1ccnc(CNCC(=O)N(CC)CCN(C)C)c1 [KDOAM-21] | no toxicity | 0.7 µM |  | 19 ± 10 µM
CPI-455 | No reduction in cell numbers was observed | 60 µM | dose-dependent increase of the H3K4me3 mark | 23 ± 3.5 µM
Clc1ccc(N/N=C(\c2ccccc2)c2ccccn2)nc1 [JIB-04 E] | only observed cell toxicity at high concentrations | 3 µM | dose-dependent increase of H3K4me3 | 
CCN(CCN(C)C)C(=O)CNCc1cncc(C(N)=O)c1 [KDOAM-32] |  | > 100 µM |  | 
